Among the test systems are SNB-75 CNS; EKVX NSCLC; HT29 colon; HL-60(TB) leukemia; DU-145 prostate; SF-295 CNS; TK-10 renal; SNB-19 CNS; MCF7 breast; SK-MEL-2 melanoma; NCI-H522 lung; NCI/ADR-RES ovarian; HS 578T breast; OVCAR-8 ovarian; RPMI-8226 leukemia; 786-0 renal; KM12 colon; UACC-62 melanoma; SR leukemia; A498 renal.
Test in all cases: growth of human tumour cells (NCI), 48 h

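1) Cells in 96-well plates. 2) Compound, 48 h, 5 concentrations. 3) Linear interpolation between surrounding doses. 4) Unreached endpoint = highest concentration. TGI: concentration producing complete growth inhibition.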 Where a SMILES comes first, the peptide text is derived from it. [ ]: non-standard residue; d: D form. The star is where a group is joined. ξ: configuration not given here. NMeF = CN[CH](Cc1ccccc1)C(=O)O; ξNMe2Val = CC(C)C(C(=O)*)N(C)C; NMeV = CN[CH](C(=O)O)C(C)C; OtBu = CC(C)(C)O* Where only a bound is given, the exact number is not on record here.

Take `Nc1ccn(C2CCC(COP(=O)(O)OCC(O)COP(=O)(O)OCC3OC(n4cc(F)c(=O)[nH]c4=O)CC3O)O2)c(=O)n1` (stereo not drawn): the TGI in the experiment with SNB-75 CNS, with EKVX NSCLC, in the experiment on HT29 colon, with HL-60(TB) leukemia, with DU-145 prostate and in the experiment with SF-295 CNS was more than 100 µM each time. Further, the TGI in the experiment with TK-10 renal, with SNB-19 CNS, with MCF7 breast, in the experiment on SK-MEL-2 melanoma, in the experiment on NCI-H522 lung and in the experiment on NCI/ADR-RES ovarian was more than 100 µM in each case. The TGI with HS 578T breast, with OVCAR-8 ovarian, in the experiment on RPMI-8226 leukemia, in the experiment with 786-0 renal and in the experiment on KM12 colon was more than 100 µM in each case.
On to `CC(C)C(C(=O)N(C)C(Cc1ccccc1)C(=O)N(C)C(C(=O)N(C)C(C(=O)N1CCCC1C(=O)OC(C)(C)C)C(C)C)C(C)C)N(C)C` (stereo not drawn) (ξNMe2Val-[NMeF][NMeV][NMeV]P-OtBu; configuration not given here), for which the TGI with EKVX NSCLC was more than 100 µM; in the experiment on UACC-62 melanoma, more than 100 µM; in the experiment with HT29 colon it was more than 100 µM; in the experiment with HL-60(TB) leukemia it was 94.7 µM; in the experiment with SF-295 CNS, more than 100 µM; in the experiment on TK-10 renal, more than 100 µM. Moreover, the TGI in the experiment with SNB-19 CNS was more than 100 µM; in the experiment on SR leukemia, more than 100 µM; in the experiment with NCI-H522 lung, 46.5 µM; in the experiment with OVCAR-8 ovarian, more than 100 µM; in the experiment with RPMI-8226 leukemia, more than 100 µM; in the experiment with 786-0 renal, more than 100 µM. The TGI in the experiment with KM12 colon is more than 100 µM.
In the case of `O=c1/c(=C/c2ccccn2)sc2nc3cc4c(cc3n12)OCCO4`, the TGI with SNB-75 CNS, with UACC-62 melanoma, in the experiment on HT29 colon, with DU-145 prostate, in the experiment on SF-295 CNS and in the experiment with TK-10 renal was more than 100 µM each time. Also, the TGI in the experiment on SNB-19 CNS, in the experiment with SK-MEL-2 melanoma, in the experiment with NCI-H522 lung, with NCI/ADR-RES ovarian, in the experiment with HS 578T breast and in the experiment on OVCAR-8 ovarian was more than 100 µM throughout. For the same compound, the TGI in the experiment with RPMI-8226 leukemia, with A498 renal, with 786-0 renal and in the experiment on KM12 colon was more than 100 µM in each case.
With `C(=C/c1nnnn1-c1ccccc1)/Nc1ccccc1`, the TGI with SNB-75 CNS, with EKVX NSCLC, in the experiment on UACC-62 melanoma, in the experiment on HT29 colon, in the experiment with HL-60(TB) leukemia and in the experiment on DU-145 prostate was more than 100 µM in each case. The TGI amounted to 85.3 µM in the experiment on SF-295 CNS; 77.5 µM in the experiment with TK-10 renal; 96.8 µM with SNB-19 CNS; 64.8 µM with MCF7 breast; 20.6 µM with SK-MEL-2 melanoma; 81.8 µM in the experiment on NCI-H522 lung. The TGI with NCI/ADR-RES ovarian was 80.2 µM; in the experiment with HS 578T breast, more than 100 µM; with OVCAR-8 ovarian it was more than 100 µM; in the experiment on RPMI-8226 leukemia it was more than 100 µM; in the experiment with A498 renal it was more than 100 µM; in the experiment with 786-0 renal, more than 100 µM. This compound came in with a TGI with KM12 colon of more than 100 µM.
On to `O=C1[C@@H]2C(c3ccccc3[N+](=O)[O-])=NO[C@@H]2C(=O)N1c1ccc(Cc2ccc(N3C(=O)[C@H]4C(c5ccccc5[N+](=O)[O-])=NO[C@H]4C3=O)cc2)cc1`, for which the TGI in the experiment on SNB-75 CNS, with EKVX NSCLC, in the experiment with UACC-62 melanoma, in the experiment on HT29 colon, in the experiment with SF-295 CNS and in the experiment with TK-10 renal was more than 100 µM throughout. Besides, the TGI in the experiment with SNB-19 CNS, in the experiment on SR leukemia, in the experiment with NCI-H522 lung, in the experiment with OVCAR-8 ovarian, in the experiment with RPMI-8226 leukemia and in the experiment with A498 renal was more than 100 µM each time. Further, the TGI in the experiment with 786-0 renal and in the experiment on KM12 colon was more than 100 µM in each case.
For the compound `O=C1c2cccnc2-c2nccc3c2c1nc1ccccc13`, the TGI in the experiment on SNB-75 CNS is 1.76 µM; with EKVX NSCLC it was 3.21 µM; in the experiment with UACC-62 melanoma, 0.541 µM; with HT29 colon, 2.5 µM; in the experiment on DU-145 prostate, 0.962 µM; with SF-295 CNS it was 0.194 µM. Besides, the TGI in the experiment with TK-10 renal is 2.84 µM; in the experiment with SNB-19 CNS, 1.28 µM; in the experiment with MCF7 breast, 0.0858 µM; in the experiment with SK-MEL-2 melanoma, 0.525 µM; with NCI-H522 lung, 0.281 µM; in the experiment with NCI/ADR-RES ovarian it was 0.673 µM. For the same compound, the TGI with HS 578T breast was 2.26 µM; with OVCAR-8 ovarian, 1.61 µM; in the experiment with RPMI-8226 leukemia, 1.17 µM; with A498 renal it was 1.03 µM; in the experiment on 786-0 renal, 2.21 µM; in the experiment with KM12 colon, 1.03 µM.
As for `COC(=O)c1ccccc1C1CN=NC12Cc1ccc3c(c1C2=O)CCC3` (stereo not drawn), the TGI in the experiment with SNB-75 CNS, in the experiment with EKVX NSCLC, with UACC-62 melanoma, in the experiment on HT29 colon, in the experiment with HL-60(TB) leukemia and in the experiment with DU-145 prostate was more than 100 µM in each case. Moreover, the TGI with SF-295 CNS was more than 100 µM; in the experiment with TK-10 renal it was more than 100 µM; in the experiment with SNB-19 CNS it was more than 100 µM; in the experiment on MCF7 breast it was more than 100 µM; in the experiment on SK-MEL-2 melanoma, more than 100 µM; with NCI-H522 lung it was 54.7 µM. For the same compound, the TGI in the experiment with NCI/ADR-RES ovarian, in the experiment with HS 578T breast, in the experiment with OVCAR-8 ovarian, in the experiment with A498 renal, with 786-0 renal and with KM12 colon was more than 100 µM each time.
With `O=C(NC1C/C(=N/O)c2c(Br)sc(Br)c21)C(F)(F)F` (stereo not drawn), the TGI in the experiment on SNB-75 CNS, in the experiment with EKVX NSCLC, in the experiment on UACC-62 melanoma, in the experiment with HT29 colon, in the experiment with HL-60(TB) leukemia and with DU-145 prostate was more than 100 µM each time. The TGI in the experiment on SF-295 CNS is more than 100 µM; in the experiment on TK-10 renal it was more than 100 µM; in the experiment on SNB-19 CNS, more than 100 µM; in the experiment with MCF7 breast it was more than 100 µM; in the experiment with SK-MEL-2 melanoma it was 90.1 µM; in the experiment with NCI-H522 lung, more than 100 µM. Besides, the TGI in the experiment on NCI/ADR-RES ovarian is 88.6 µM; with HS 578T breast, 36.3 µM; in the experiment with OVCAR-8 ovarian, 63.2 µM; in the experiment on A498 renal, 57.8 µM; in the experiment on 786-0 renal, 40.4 µM; in the experiment with KM12 colon it was more than 100 µM.
